# Patent US9827212B2, “Compositions and methods for treating asthma and other lung diseases” (THE TRUSTEES OF THE UNIVERSITY OF PENNSYLVANIA, priority 2010, dated 2017)
# Read-outs that look alike come from different tables or passages of the source.
# Experiments:
# HDAC = details: TSA 0.6 mg/kg i.p.
# Protocol: HDAC activity was measured as described previously (Trivedi et al. 2007). […] 50 μg of total extract was incubated with HDAC assay substrate and incubated at 30° C. for 60 min. After the addition of diluted activator reagent, samples were incubated at room temperature for 15 min, and readings were taken by fluorescent microplate reader at an excitation of 360 nm and emission of 450 nm. A standard curve was performed according to the manufacturer's protocol.
# IL-6 [1] = test: IL-6 level in BAL fluid (ELISA); type: in vivo, mice
# Protocol: (§1) Mice were sensitized by intraperitoneal (I.P.) injections of 20 μg allergen, a protein extract of the ubiquitous, airborn fungus, Aspergillus fumigatus (AF), (Bayer Pharmaceuticals), in 100 μl PBS solution containing 2 mg of alum (Imject Alum, Pierce) on days 0 and 14 and challenged on days 25, 26, and 27 with 30 μl of Af extract in PBS (25 μg) intranasally (i.n.) (FIG. 1).
# (§2) The levels of cytokine secreted into the supernatants of PCLS and bronchoalveolar lavage (BAL) fluid samples were determined by ELISA according to standard protocols as previously described (Banerjee et al. 2008). The cytokine amounts were calculated from the standard curves in each plate. The limits of detection were 5 pg/ml for IL-4 and IL-6 and RANTES standards. Recombinant mouse IL-4 and IL-6 and human RANTES were used as controls.
# [2] = test system: inflammatory cells in bronchoalveolar lavage (BAL) fluid; test: BAL cell count and differential; type: in vivo, mice
# Protocol: as §1
# After functional measurements were completed, lungs were lavaged with 1-ml aliquots of sterile saline through the tracheal cannula. After centrifuging (500 g for 10 min at 4° C.) the cell pellet was resuspended in RPMI. Differential cell counts were made from cytospin preparations as described (Elwood et al. 1991). Cells were identified as macrophages, eosinophils, neutrophils, and lymphocytes by standard morphology and at least 300 cells were counted under ×400 magnification. The percentage and absolute numbers of each cell type were then calculated. The supernatants were harvested and stored at −20° C. for further analysis.
# RANTES = RANTES secretion from human precision cut lung slices (PCLS); type: cell-based; details: for inhibition of RANTES secretion from PCLS: TSA 10 μM or budesonide 50 nM 2 h prior
# Protocol: (§3) FIG. 11. […] Secretion of IL-6 and RANTES was analyzed as described under materials and methods. Values shown are mean+/− s.d. from three samples.
# as §2
# (§4) Human lung slice preparation. Human PCLS were prepared as previously described (Cooper et al. 2008). Briefly, healthy whole human lungs were received from the NDRI, and the smallest lobe was dissected out and its main bronchus identified. The lobe was inflated using a 2% (wt/vol) low melting point agarose solution. Once the agarose had set, the lobe was sectioned, and cores of 8-mm diameter were made. The cores that contained a small airway by visual inspection were sliced at a thickness of 250 μm (Krumdieck Tissue Slicer; model no. MD4000; Alabama Research and Development) and collected in wells containing supplemented Ham's F-12 medium. Suitable airways (≦1-mm diameter) on slices were selected on the basis of the following criteria: presence of a full smooth muscle wall (i.e., cut perpendicular to direction of airway); presence of beating cilia to eliminate blood vessels; and unshared muscle walls at airway branch points to eliminate possible counteracting contractile forces. […] Adjacent slices containing contiguous segments of the same airway were paired to act as control to the variable tested and incubated at 37° C. on a rotating platform in a humidified air-CO2 (95-5%) incubator. Sections were placed in fresh media every 2-3 h during the remainder of day 1 and all of day 2 to rid the slice and media of agarose and endogenous substances released that could variably confound the production of inflammatory mediators and/or alter airway tone.
# (§5) Three airways from each donor were used per condition; n values indicate the number of donors. Data are expressed as means± SEM. Statistical difference was shown by using a nonpaired t test.
# IL-4 = IL-4 level in BAL fluid (ELISA); type: in vivo, mice
# Protocol: as §1, §2
# [3] = test system: mice sensitized and challenged with Aspergillus fumigatus (AF); test: Invasive lung function (FlexiVent), methacholine challenge, Aspergillus fumigatus sensitized and challenged mice; type: in vivo; details: TSA 0.6 mg/kg i.p., dexamethasone 2.5 mg/kg i.p.
# Protocol: as §1
# (§6) Lung resistance, compliance, elastance, tissue damping, tissue elastance, and airway resistance were recorded using the FlexiVent system (SCIREQ Scientific Respiratory Equipment Inc). The FlexiVent System Overview is shown in FIG. 1B: FlexiVent is a modular, multi-functional device that performs both mechanical ventilation and detailed measurements of respiratory mechanics in subjects.
# (§7) The mice were anesthetized by an I.P. injection of a Ketamine (100 mg/kg) and Xylazine (20 mg/kg) mixture. After anesthesia, a half centimeter incision was made from the rostal to caudal direction; the flap of skin was retracted and the connective tissue was dissected away, and the trachea was exposed. The trachea was then cannulated between the second and third cartilage rings with a blunt-end stub adapter. The cannula was secured with suture. The mice were next connected to the Flexivent system. All spontaneous respirations were stopped with an intramuscular injection of Pancuronium Bromide (3 mg/kg) and the mice were then mechanically ventilated at respiratory rate of 140 beats/per minute with 0.25 ml of tidal volume. The Flexivent system then briefly interrupted the mechanical ventilation to apply a test signal, or perturbation to measure the respiratory mechanics. The respiratory mechanics were then calculated from the data collected while the perturbation was applied. […] At the end of testing the mice were disconnected and processed for multiple organ, blood, and fluid removal. The mice were first exsanguinated through the optical artery. Then bronchoalveolar lavage was performed through the tracheal canula. Finally, the peritoneal and the thoracic cavity were opened, and the lungs were removed for protein and histological processing.
# IL-6 [4] = test: IL-6 secretion from human precision cut lung slices (PCLS); type: cell-based; details: for inhibition of IL-6 secretion from PCLS / inhibition at 0.05 µM: TSA 10 μM or budesonide 50 nM 2 h prior; for inhibition at 0.05 µM: Homo sapiens
# Protocol: as §3, §2, §4, §5
# [5] = test system: naïve mice challenged with methacholine; test: Invasive lung function (FlexiVent), methacholine challenge, naïve mice; type: in vivo; details: dexamethasone 2.5 mg/kg i.p.
# Protocol: as §6, §7
# [6] = mice sensitized and challenged with Aspergillus
# [7] = unsensitized and unchallenged (naïve) mice
# [8] = TNFα (10 ng/mL) and IFNγ (10,000 IU/mL) stimulated
structure (smiles),measurement,setting,value
"CC(/C=C/C(=O)NO)=C\[C@@H](C)C(=O)c1ccc(N(C)C)cc1 [TSA, Trichostatin A]",HDAC activity in lung tissue,HDAC; [6],effectively inhibited HDAC activity
same,HDAC activity in lung tissue,HDAC; naïve mice,effectively inhibited HDAC activity
same,IL-6 in BAL,IL-6 [1]; [6],little effect on cytokine secretion
same,IL-6 in BAL,IL-6 [1]; [7],did not increase
same,BAL eosinophil counts,"[2]; Aspergillus challenged mice, TSA 0.6 mg/kg i.p., dexamethasone 2.5 mg/kg i.p.",no effect
same,total cell counts in BAL,"[2]; Aspergillus sensitized and challenged mice, TSA 0.6 mg/kg i.p., dexamethasone 2.5 mg/kg i.p.",no effect
same,percentages of inflammatory cells in the BAL,[2]; after allergen sensitization and challenge,little effect
same,total cell counts in BAL,"[2]; naïve mice, TSA 0.6 mg/kg i.p., dexamethasone 2.5 mg/kg i.p.",no significant difference in cell counts
same,"BAL macrophages, neutrophils, or lymphocytes",[2]; untreated mice or Aspergillus sensitized and challenged mice,no significant differences
same,inhibition of RANTES secretion from PCLS,"RANTES; TNFα (10 ng/mL) and IFNγ (10,000 IU/mL) induced",55.1%+/−7.5%
same,inhibition of RANTES secretion from PCLS,RANTES; TNFα (10 ng/mL) induced,50%+/−23%
same,basal RANTES secretion from PCLS,"RANTES; unstimulated, TSA 10 μM",did not induce basal RANTES secretion
same,IL-4 in BAL,IL-4; [6],little effect on cytokine secretion
same,IL-4 in BAL,IL-4; [7],did not increase
same,"dynamic compliance, maximum inhibition by methacholine",[3],0.008 mL/cmH2O
same,half maximal effective concentration of methacholine (airway resistance),[3],20 mg/mL
same,half maximal inhibitory concentration of methacholine on dynamic compliance,[3],5 mg/mL
same,inhibition of IL-6 secretion from PCLS,IL-6 [4]; [8],18.8%+/−6.8%
same,inhibition of IL-6 secretion from PCLS,IL-6 [4]; TNFα (10 ng/mL) stimulated,30.2%+/−12.5%
same,basal IL-6 secretion from PCLS,"IL-6 [4]; unstimulated, TSA 10 μM",little effect on basal IL-6 secretion
same,"dynamic compliance, maximum inhibition by methacholine",[5]; TSA 0.6 mg/kg i.p.,0.032 mL/cmH2O
same,half maximal inhibitory concentration of methacholine on dynamic compliance,[5]; TSA 0.6 mg/kg i.p.,2.5 mg/mL
CCCC1O[C@@H]2C[C@H]3[C@@H]4CCC5=CC(=O)C=C[C@]5(C)[C@H]4[C@@H](O)C[C@]3(C)[C@]2(C(=O)CO)O1 (some centres unmarked) [budesonide],inhibition at 0.05 µM,RANTES; Homo sapiens,69%
same,inhibition at 0.05 µM,IL-6 [4]; [8],52.7%
same,inhibition at 0.05 µM,IL-6 [4]; TNFα (10 ng/mL) stimulated,44.4%
C[C@@H]1C[C@H]2[C@@H]3CCC4=CC(=O)C=C[C@]4(C)[C@@]3(F)[C@@H](O)C[C@]2(C)[C@@]1(O)C(=O)CO [dexamethasone],Emax of airway resistance in response to methacholine,[3],6 cmH2O/mL
same,"dynamic compliance, maximum inhibition by methacholine",[3],0.005 mL/cmH2O
same,Emax of airway (lung) resistance in response to methacholine,[5]; TSA 0.6 mg/kg i.p. in DMSO,2.3 cmH2O/mL
same,"dynamic compliance, maximum inhibition by methacholine",[5]; TSA 0.6 mg/kg i.p.,0.010 mL/cmH2O
